Laboratory results reported in patent US10508085B2, “Compounds and methods for IDO and TDO modulation, and indications therefor” (Plexxikon Inc., priority 2016, dated 2019).

Experiments:
[1] = target: T1, human IDO (IDO1-expressing HEK293 cells) (Homo sapiens, UniProt P14902); assay: Cell based kynurenine assay, IDO1-expressing HEK293 cell clones; conditions: IDO1-expressing HEK293 cells, 24 hours incubation; geometric mean; read-out: HEK293 IDO1 Kynurenine GMean IC50 (μM) (Cellular Assay)
T1 construct: expressed in transfected cells
T1 sequence (P14902 whole entry): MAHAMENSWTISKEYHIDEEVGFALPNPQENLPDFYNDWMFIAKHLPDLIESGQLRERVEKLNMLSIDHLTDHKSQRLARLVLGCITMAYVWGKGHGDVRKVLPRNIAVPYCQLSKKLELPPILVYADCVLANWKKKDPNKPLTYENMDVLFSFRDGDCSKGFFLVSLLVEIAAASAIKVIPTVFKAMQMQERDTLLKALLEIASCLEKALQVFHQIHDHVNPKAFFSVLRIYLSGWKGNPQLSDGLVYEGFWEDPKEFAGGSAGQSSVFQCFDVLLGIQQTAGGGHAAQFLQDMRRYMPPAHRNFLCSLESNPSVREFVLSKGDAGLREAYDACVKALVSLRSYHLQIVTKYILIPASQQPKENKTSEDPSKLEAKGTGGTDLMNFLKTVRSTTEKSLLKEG
Method in brief: (§1)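 Steps: seed IDO1- or TDO-expressing HEK293 cells at 2.5×10^4 per well; add compound dilutions; incubate 24 h; transfer supernatant and determine kynurenine; derive IC50 via nonlinear regression of percent inhibition.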

[2] = target: T2, Human Indoleamine 2,3-dioxygenase (IDO) (Homo sapiens, UniProt P14902); assay: Human IDO enzymatic assay (kynurenine level); format: biochemical; conditions: 6 nM IDO, 10 μM L-Trp; geometric mean; read-out: IDO1 GMean: IC50 (μM) (Biochemical Assay)
T2 construct: His tag (N); made in house; host or cells: E. coli
T2 sequence (P14902 whole entry): as above
Method in brief: (§2)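 Kynurenine formed is measured after TCA quench and 50 °C hydrolysis, with % inhibition against full-reaction and no-enzyme controls (5% DMSO). IDO: 6 nM enzyme, 10 μM L-Trp, 5 μM methylene blue, 20 min; TDO: 1 nM, 350 μM L-Trp, 0.4 μM methylene blue, 70 min; both pH 6.5, room temp, E. coli-expressed His-tagged.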

[3] = target: T3, Human Tryptophan 2,3-dioxygenase (TDO) (Homo sapiens, UniProt P48775); assay: Human TDO enzymatic assay (kynurenine level); format: biochemical; conditions: 1 nM TDO, 350 μM L-Trp; geometric mean; read-out: TDO GMean: IC50 (μM) (Biochemical Assay)
T3 construct: His tag (N); made in house; host or cells: E. coli
T3 sequence (P48775 whole entry): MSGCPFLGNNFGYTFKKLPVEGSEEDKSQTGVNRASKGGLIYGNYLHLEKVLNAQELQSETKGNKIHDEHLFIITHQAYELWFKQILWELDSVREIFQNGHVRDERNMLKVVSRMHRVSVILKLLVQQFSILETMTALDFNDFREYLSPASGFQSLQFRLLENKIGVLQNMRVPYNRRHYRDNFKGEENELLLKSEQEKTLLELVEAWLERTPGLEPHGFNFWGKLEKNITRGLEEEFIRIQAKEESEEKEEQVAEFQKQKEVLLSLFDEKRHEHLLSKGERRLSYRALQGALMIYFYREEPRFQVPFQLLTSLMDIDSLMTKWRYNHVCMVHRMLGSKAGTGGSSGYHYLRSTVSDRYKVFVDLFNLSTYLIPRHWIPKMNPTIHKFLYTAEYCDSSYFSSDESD
Method in brief: as §2

[4] = target: T4, human TDO (TDO-expressing HEK293 cells) (Homo sapiens, UniProt P48775); assay: Cell based kynurenine assay, TDO-expressing HEK293 cell clones; conditions: TDO-expressing HEK293 cells, 24 hours incubation; geometric mean; read-out: HEK293 TDO Kynurenine GMean IC50 (μM) (Cellular Assay)
T4 construct: expressed in transfected cells
T4 sequence (P48775 whole entry): as above
Method in brief: as §1

COCC(=O)N1CCC(C(F)(F)C(O)c2cc(Cl)cc3cn[nH]c23)CC1 (stereo not shown) [Compound P-0350, 1-(4-(2-(5-chloro-1H-indazol-7-yl)-1,1-difluoro-2-hydroxyethyl)piperidin-1-yl)-2-methoxyethan-1-one]
IC50 [1]: 0.0001 to 10 µM
IC50 [2]: 0.0001 to 10 µM
IC50 [3]: 0.0001 to 10 µM
IC50 [4]: 0.0001 to 10 µM

CC(C)C(=O)N1CCC(C(F)(F)C(O)c2cc(Cl)cc3cn[nH]c23)CC1 (stereo not shown) [Compound P-0351, 1-(4-(2-(5-chloro-1H-indazol-7-yl)-1,1-difluoro-2-hydroxyethyl)piperidin-1-yl)-2-methylpropan-1-one]
IC50 [1]: 0.0001 to 10 µM
IC50 [2]: 0.0001 to 10 µM
IC50 [3]: 0.0001 to 10 µM
IC50 [4]: 0.0001 to 10 µM

OC1(c2cc(Cl)cc3[nH]ncc23)CC2(CC2)C1 [Compound P-0352, 5-(6-chloro-1H-indazol-4-yl)spiro[2.3] hexan-5-ol]
IC50 [1]: > 10 µM
IC50 [2]: 10 to 100 µM
IC50 [3]: 0.0001 to 10 µM
IC50 [4]: 0.0001 to 10 µM

CC(C)(C1CCN(C(=O)NS(=O)(=O)c2ccccc2)CC1)C(O)c1cc(Cl)cc2cn[nH]c12 (stereo not shown) [Compound P-0353, 4-(1-(5-chloro-1H-indazol-7-yl)-1-hydroxy-2-methylpropan-2-yl)-N-(phenylsulfonyl) piperidine-1-carboxamide]
IC50 [1]: 0.0001 to 10 µM
IC50 [2]: 0.0001 to 10 µM
IC50 [3]: 0.0001 to 10 µM
IC50 [4]: 0.0001 to 10 µM

C[C@H](NC(=O)N1CCC(C(C)(C)C(O)c2cc(Cl)cc3cn[nH]c23)CC1)c1ccccc1 (stereo partly drawn) [Compound P-0354, 4-(1-(5-chloro-1H-indazol-7-yl)-1-hydroxy-2-methylpropan-2-yl)-N-((S)-1-phenylethyl) piperidine-1-carboxamide]
IC50 [1]: 0.0001 to 10 µM
IC50 [2]: 0.0001 to 10 µM
IC50 [3]: 0.0001 to 10 µM
IC50 [4]: 0.0001 to 10 µM

CCCNC(=O)N1CCC(C(C)(C)C(O)c2cc(Cl)cc3cn[nH]c23)CC1 (stereo not shown) [Compound P-0355, 4-(1-(5-chloro-1H-indazol-7-yl)-1-hydroxy-2-methylpropan-2-yl)-N-propylpiperidine-1-carboxamide]
IC50 [1]: 0.0001 to 10 µM
IC50 [2]: 0.0001 to 10 µM
IC50 [3]: 0.0001 to 10 µM
IC50 [4]: 0.0001 to 10 µM

CC(C)(C)NC(=O)N1CCC(C(C)(C)C(O)c2cc(Cl)cc3cn[nH]c23)CC1 (stereo not shown) [Compound P-0356, N-(tert-butyl)-4-(1-(5-chloro-1H-indazol-7-yl)-1-hydroxy-2-methylpropan-2-yl)piperidine-1-carboxamide]
IC50 [1]: 0.0001 to 10 µM
IC50 [2]: 0.0001 to 10 µM
IC50 [3]: 0.0001 to 10 µM
IC50 [4]: 0.0001 to 10 µM

COCCCNC(=O)N1CCC(C(C)(C)C(O)c2cc(Cl)cc3cn[nH]c23)CC1 (stereo not shown) [Compound P-0357, 4-(1-(5-chloro-1H-indazol-7-yl)-1-hydroxy-2-methyipropan-2-yl)-N-(3-methoxypropyl) piperidine-1-carboxamide]
IC50 [1]: 0.0001 to 10 µM
IC50 [2]: 0.0001 to 10 µM
IC50 [3]: 0.0001 to 10 µM
IC50 [4]: 0.0001 to 10 µM

CC(C)(C1CCN(C(=O)Nc2cccnc2)CC1)C(O)c1cc(Cl)cc2cn[nH]c12 (stereo not shown) [Compound P-0358, 4-(1-(5-chloro-1H-indazol-7-yl)-1-hydroxy-2-methylpropan-2-yl)-N-(pyridin-3-yl)piperidine-1-carboxamide]
IC50 [1]: 0.0001 to 10 µM
IC50 [2]: 0.0001 to 10 µM
IC50 [3]: 0.0001 to 10 µM
IC50 [4]: 0.0001 to 10 µM

CC(C)(C1CCN(C(=O)Nc2cccc(F)c2)CC1)C(O)c1cc(Cl)cc2cn[nH]c12 (stereo not shown) [Compound P-0359, 4-(1-(5-chloro-1H-indazol-7-yl)-1-hydroxy-2-methylpropan-2-yl)-N-(3-fluorophenyl) piperidine-1-carboxamide]
IC50 [1]: 0.0001 to 10 µM
IC50 [2]: 0.0001 to 10 µM
IC50 [3]: 0.0001 to 10 µM
IC50 [4]: 0.0001 to 10 µM

CC(C)(C1CCN(C(=O)Nc2cccc(C#N)c2)CC1)C(O)c1cc(Cl)cc2cn[nH]c12 (stereo not shown) [Compound P-0360, 4-(1-(5-chloro-1H-indazol-7-yl)-1-hydroxy-2-methylpropan-2-yl)-N-(3-cyanophenyl) piperidine-1-carboxamide]
IC50 [1]: 0.0001 to 10 µM
IC50 [2]: 0.0001 to 10 µM
IC50 [3]: 0.0001 to 10 µM
IC50 [4]: 0.0001 to 10 µM

CC(C)(C1CCN(C(=O)Nc2ccc(Cl)cc2)CC1)C(O)c1cc(Cl)cc2cn[nH]c12 (stereo not shown) [Compound P-0361, 4-(1-(5-chloro-1H-indazol-7-yl)-1-hydroxy-2-methylpropan-2-yl)-N-(4-chlorophenyl) piperidine-1-carboxamide]
IC50 [1]: 0.0001 to 10 µM
IC50 [2]: 0.0001 to 10 µM
IC50 [3]: 0.0001 to 10 µM
IC50 [4]: 0.0001 to 10 µM

CC(C)(C1CCN(C(=O)c2cccnc2)CC1)C(O)c1cc(Cl)cc2cn[nH]c12 (stereo not shown) [Compound P-0362, (4-(1-(5-chloro-1H-indazol-7-yl)-1-hydroxy-2-methylpropan-2-yl)piperidin-1-yl)(pyridin-3-yl)methanone]
IC50 [1]: 0.0001 to 10 µM
IC50 [2]: 0.0001 to 10 µM
IC50 [3]: 0.0001 to 10 µM
IC50 [4]: 0.0001 to 10 µM

CC(C)(C1CCN(C(=O)c2ccc(C(F)(F)F)nc2)CC1)C(O)c1cc(Cl)cc2cn[nH]c12 (stereo not shown) [Compound P-0363, (4-(1-(5-chloro-1H-indazol-7-yl)-1-hydroxy-2-methylpropan-2-yl)piperidin-1-yl)(6-(trifluoromethyl)pyridin-3-yl)methanone]
IC50 [1]: 0.0001 to 10 µM
IC50 [2]: 0.0001 to 10 µM
IC50 [3]: 0.0001 to 10 µM
IC50 [4]: 0.0001 to 10 µM

CC(C)(C1CCN(C(=O)c2ccccc2F)CC1)C(O)c1cc(Cl)cc2cn[nH]c12 (stereo not shown) [Compound P-0364, (4-(1-(5-chloro-1H-indazol-7-yl)-1-hydroxy-2-methylpropan-2-yl)piperidin-1-yl)(2-fluorophenyl) methanone]
IC50 [1]: 0.0001 to 10 µM
IC50 [2]: 0.0001 to 10 µM
IC50 [3]: 0.0001 to 10 µM
IC50 [4]: 0.0001 to 10 µM

CC(C)(C1CCN(C(=O)c2ccccn2)CC1)C(O)c1cc(Cl)cc2cn[nH]c12 (stereo not shown) [Compound P-0365, (4-(1-(5-chloro-1H-indazol-7-yl)-1-hydroxy-2-methylpropan-2-yl)piperidin-1-yl)(pyridin-2-yl)methanone]
IC50 [1]: 0.0001 to 10 µM
IC50 [2]: 0.0001 to 10 µM
IC50 [3]: 0.0001 to 10 µM
IC50 [4]: 0.0001 to 10 µM

CC(C)(C1CCN(C(=O)c2ccccc2C(F)(F)F)CC1)C(O)c1cc(Cl)cc2cn[nH]c12 (stereo not shown) [Compound P-0366, (4-(1-(5-chloro-1H-indazol-7-yl)-1-hydroxy-2-methylpropan-2-yl)piperidin-1-yl)(2-(trifluoromethyl)phenyl)methanone]
IC50 [1]: 0.0001 to 10 µM
IC50 [2]: 0.0001 to 10 µM
IC50 [3]: 0.0001 to 10 µM
IC50 [4]: 0.0001 to 10 µM

CC(C)(C1CCN(C(=O)c2ccc(N3CCOCC3)nc2)CC1)C(O)c1cc(Cl)cc2cn[nH]c12 (stereo not shown) [Compound P-0367, (4-(1-(5-chloro-1H-indazol-7-yl)-1-hydroxy-2-methylpropan-2-yl)piperidin-1-yl)(6-morpholinopyridin-3-yl)methanone]
IC50 [1]: 0.0001 to 10 µM
IC50 [2]: 0.0001 to 10 µM
IC50 [3]: 0.0001 to 10 µM
IC50 [4]: 0.0001 to 10 µM

CC(C)(C1CCN(C(=O)c2ccccc2Cl)CC1)C(O)c1cc(Cl)cc2cn[nH]c12 (stereo not shown) [Compound P-0368, (4-(1-(5-chloro-1H-indazol-7-yl)-1-hydroxy-2-methylpropan-2-yl)piperidin-1-yl)(2-chlorophenyl) methanone]
IC50 [1]: 0.0001 to 10 µM
IC50 [2]: 0.0001 to 10 µM
IC50 [3]: 0.0001 to 10 µM
IC50 [4]: 0.0001 to 10 µM

CC(C)(C1CCN(C(=O)c2c(F)cccc2Cl)CC1)C(O)c1cc(Cl)cc2cn[nH]c12 (stereo not shown) [Compound P-0369, (4-(1-(5-chloro-1H-indazol-7-yl)-1-hydroxy-2-methylpropan-2-yl)piperidin-1-yl)(2-chloro-6-fluorophenyl) methanone]
IC50 [1]: 0.0001 to 10 µM
IC50 [2]: 0.0001 to 10 µM
IC50 [3]: 0.0001 to 10 µM
IC50 [4]: 0.0001 to 10 µM

CC(C)(C)OC(=O)N1CCC(C(C)(C)C(O)c2c(F)c(Cl)cc3cn[nH]c23)CC1 (stereo not shown) [Compound P-0370, tert-butyl 4-(1-(5-chloro-6-fluoro-1H-indazol-7-yl)-1-hydroxy-2-methylpropan-2-yl)piperidine-1-carboxylate]
IC50 [1]: 0.0001 to 10 µM
IC50 [2]: 0.0001 to 10 µM
IC50 [3]: 0.0001 to 10 µM
IC50 [4]: 0.0001 to 10 µM

OC1(c2cc(Cl)cc3[nH]ncc23)CC2(CCCCC2)C1 [Compound P-0371, 2-(6-chloro-1H-indazol-4-yl)spiro[3.5] nonan-2-ol]
IC50 [1]: > 10 µM
IC50 [2]: 10 to 100 µM
IC50 [3]: 0.0001 to 10 µM
IC50 [4]: 0.0001 to 10 µM

OC1(c2cc(Cl)cc3[nH]ncc23)CC2(CCOCC2)C1 [Compound P-0372, 2-(6-chloro-1H-indazol-4-yl)-7-oxaspiro[3.5] nonan-2-ol]
IC50 [1]: 0.0001 to 10 µM
IC50 [2]: > 200 µM
IC50 [3]: 0.0001 to 10 µM
IC50 [4]: > 10 µM

C[C@@H](NC(=O)N1CCC(C(C)(C)C(O)c2cc(Cl)cc3cn[nH]c23)CC1)c1ccccc1 (stereo partly drawn) [Compound P-0373, 4-(1-(5-chloro-1H-indazol-7-yl)-1-hydroxy-2-methylpropan-2-yl)-N-((R)-1-phenylethyl) piperidine-1-carboxamide]
IC50 [1]: 0.0001 to 10 µM
IC50 [2]: 0.0001 to 10 µM
IC50 [3]: 0.0001 to 10 µM
IC50 [4]: 0.0001 to 10 µM

CCC(=O)N1CCC(C(F)(F)C(O)c2c(F)c(Cl)cc3cn[nH]c23)CC1 (stereo not shown) [Compound P-0374, 1-(4-(2-(5-chloro-6-fluoro-1H-indazol-7-yl)-1,1-difluoro-2-hydroxyethyl)piperidin-1-yl) propan-1-one]
IC50 [1]: 0.0001 to 10 µM
IC50 [2]: 0.0001 to 10 µM
IC50 [3]: 0.0001 to 10 µM
IC50 [4]: 0.0001 to 10 µM
